The results in this text go back to paper PMC3362543 (2012).

Molecules are shown by their SMILES.

The subject of assay [1] is poly(U)•poly(A)*poly(U) (RNA, polymer) U/A/U. The assay can be described thus: UV melting at 260 nm. The following applies: 35 mM Na+ (25 mM NaCl, 10 mM sodium cacodylate), 0.1 mM Na2EDTA, pH 7.0, D/P 0.6, triplex 30 µM (compound 18 µM), third-strand transition, per base.
Assay [2] has the same test system. Briefly: ITC, single set of sites. The following applies: 35 mM Na+ (25 mM NaCl, 10 mM sodium cacodylate), 0.1 mM Na2EDTA, pH 7.0, 25 °C, triplex 25 µM, per base.
Assay [3] shares this test system. Briefly: absorbance titration, Scatchard, McGhee-von Hippel non-cooperative. As to conditions: 35 mM Na+ (25 mM NaCl, 10 mM sodium cacodylate), 0.1 mM Na2EDTA, pH 7.0, 25 °C, intrinsic constant per isolated site, per base.
The test system is the same in assay [4]. Briefly: fluorescence titration, Scatchard, McGhee-von Hippel non-cooperative. The following applies: 35 mM Na+ (25 mM NaCl, 10 mM sodium cacodylate), 0.1 mM Na2EDTA, pH 7.0, 25 °C, intrinsic constant per isolated site, per base.

For `COc1ccc2cc3[n+](cc2c1OC)CCc1cc2c(cc1-3)OCO2`, in assay [1], the “ΔTm' (3→2)” value amounted to 17.5 °C. Moreover, in assay [2], the Ka was 1.5±0.04 × 10^5 M^-1. Besides, the Ki is reported as 2.88±0.02 × 10^5 M^-1 in assay [3] and 3.9±0.05 × 10^5 M^-1 in assay [4].
The like results for `COc1ccc2cc3[n+](cc2c1OCCCCCCN)CCc1cc2c(cc1-3)OCO2` were, in that order, 20.5 °C, 23±0.10 × 10^5 M^-1, 39.87±0.41 × 10^5 M^-1 and 47.0±0.56 × 10^5 M^-1.
On the same counts, the results for `COc1ccc2cc3[n+](cc2c1OCCCN)CCc1cc2c(cc1-3)OCO2` are 18.1 °C, 9.73±0.09 × 10^5 M^-1, 8.65±0.34 × 10^5 M^-1 and 9.5±0.10 × 10^5 M^-1.
